Test results from patent US10124004B2, “Pyrido[3,4-d]pyrimidine derivative and pharmaceutically acceptable salt thereof” (Teijin Pharma Limited, priority 2015, dated 2018).

Assays:
CDK2/cyclin A2 = molecular target: T1, CDK2/cyclin A2 (Homo sapiens, UniProt P24941); test: Human CDK2/cyclin A2 inhibitory activity (QS S Assist CDK2/Cyclin A2_FP Kit, IMAP fluorescence polarization); format: biochemical; details: Human CDK2/cyclin A2 inhibitory activity; read-out: CDK2 Activity symbol
T1 construct: purchased Carna Biosciences, Inc. QS S Assist CDK2/Cyclin A2_FP Kit
Procedure, shortened: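 Kinase activity read as fluorescence polarization (485/535 nm) after phosphorylated fluorescent substrate binds IMAP reagent (30 min, RT, dark). Enzyme (2.5 ng/well) reacted 60 min at RT with ATP/substrate/metal in HEPES pH 7.4 buffer with Tween 20 and DTT; no-enzyme wells define 0% activity; IC50 by curve fit.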

CDK4/cyclin D3 = molecular target: T2, CDK4/cyclin D3 (Homo sapiens, UniProt P11802); test: Human CDK4/cyclin D3 inhibitory activity (QS S Assist CDK4/Cyclin D3_FP Kit, IMAP fluorescence polarization); format: biochemical; details: Human CDK4/cyclin D3 inhibitory activity; read-out: CDK4 Activity symbol
T2 construct: purchased Carna Biosciences, Inc. QS S Assist CDK4/Cyclin D3_FP Kit
T2 sequence (P11802 whole entry): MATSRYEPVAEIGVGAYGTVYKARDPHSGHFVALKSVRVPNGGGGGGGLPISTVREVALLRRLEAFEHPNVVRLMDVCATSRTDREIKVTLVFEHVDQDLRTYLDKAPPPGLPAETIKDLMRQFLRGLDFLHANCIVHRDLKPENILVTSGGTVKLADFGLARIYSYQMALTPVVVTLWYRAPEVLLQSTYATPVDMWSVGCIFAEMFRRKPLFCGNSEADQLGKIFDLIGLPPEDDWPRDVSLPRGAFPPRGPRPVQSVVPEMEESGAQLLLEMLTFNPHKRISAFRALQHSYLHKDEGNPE
T2 sequence (P30281 whole entry partner): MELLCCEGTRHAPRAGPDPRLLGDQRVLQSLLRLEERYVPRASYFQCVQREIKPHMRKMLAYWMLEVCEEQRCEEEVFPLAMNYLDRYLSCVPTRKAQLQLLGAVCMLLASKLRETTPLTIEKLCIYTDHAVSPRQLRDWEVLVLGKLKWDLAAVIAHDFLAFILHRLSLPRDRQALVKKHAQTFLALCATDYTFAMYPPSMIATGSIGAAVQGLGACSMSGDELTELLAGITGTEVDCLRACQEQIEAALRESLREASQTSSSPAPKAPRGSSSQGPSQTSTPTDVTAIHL
Procedure, shortened: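 Percent inhibition, relative to DMSO with and without enzyme, was curve-fitted to give IC50 from polarization (ex 485, em 535 nm). The 45-min room-temperature reaction used 12.5-25 ng/well enzyme, kit ATP/substrate/metal mix, and HEPES pH 7.4 buffer with Tween20 and DTT, followed by 30-min IMAP binding in the dark.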

Structure (SMILES)	IC50 (CDK2/cyclin A2) [nM]	IC50 (CDK4/cyclin D3) [nM]
CC(C)Nc1nc(C(F)F)cc2cnc(Nc3ncc(N4CCNCC4)cn3)nc12 [Compound 163]	≥ 100	< 10
CC(C)Nc1nc(C(F)F)cc2cnc(Nc3ccc(CN4CCCC4=O)cn3)nc12 [Compound 165]	≥ 100	< 10
CC(C)Nc1nc(C(F)F)cc2cnc(Nc3ccc(CCCN4CCCC4=O)cn3)nc12 [Compound 167]	≥ 100	< 10
CC(C)Nc1nc(C(F)F)cc2cnc(Nc3ccc(CCCN4CCCCS4(=O)=O)cn3)nc12 [Compound 170]	≥ 100	< 10
CO[C@H](C)c1cc2cnc(Nc3ccc(CN4CCOCC4)cn3)nc2c(NC(C)C)n1 [Compound 172]	≥ 100	10 to 100
CO[C@H](C)c1cc2cnc(Nc3ccc(CN4CCNC(=O)C4)cn3)nc2c(NC(C)C)n1 [Compound 176]	≥ 100	10 to 100
CC(=O)N1CCC(c2ccc(Nc3ncc4cc(C(F)F)nc(NC(C)C)c4n3)nc2)CC1 [Compound 178]	≥ 100	< 10
CC(C)Nc1nc(C(F)F)cc2cnc(Nc3ccc(C4CCN(S(C)(=O)=O)CC4)cn3)nc12 [Compound 179]	≥ 100	10 to 100
COCC(C)(C)Nc1nc([C@@H](C)O)cc2cnc(Nc3ccc(CN4CCOCC4)cn3)nc12 [Compound 180]	≥ 100	10 to 100
COCC(C)(C)Nc1nc([C@@H](C)O)cc2cnc(Nc3ccc(CN4CCNC(=O)C4)cn3)nc12 [Compound 182]	≥ 100	10 to 100
CCNC(=O)NCc1ccc(Nc2ncc3cc(C(F)F)nc(NC(C)C)c3n2)nc1 [Compound 186]	≥ 100	10 to 100
CC(C)Nc1nc(C(F)F)cc2cnc(Nc3ccc(CNS(N)(=O)=O)cn3)nc12 [Compound 187]	≥ 100	10 to 100
CC(C)Nc1nc(C(F)F)cc2cnc(Nc3ccc(-c4cnn(C)c4)cn3)nc12 [Compound 188]	≥ 100	10 to 100
CO[C@H](C)c1cc2cnc(Nc3ccc(CCCN4CCOCC4=O)cn3)nc2c(NC(C)C)n1 [Compound 192]	≥ 100	10 to 100
COCC(C)(C)Nc1nc([C@@H](C)O)cc2cnc(Nc3ccc(CCCN4CCOCC4=O)cn3)nc12 [Compound 193]	≥ 100	10 to 100
COCC(C)(C)Nc1nc([C@@H](C)O)cc2cnc(Nc3ccc(N4CCNCC4)cn3)nc12 [Compound 195, (R)-1-(8-(l-methoxy-2-methylpropan-2-ylamino)-2-(5-(piperazin-1-yl)pyridin-2-ylamino)pyrido[3,4-d]pyrimidin-6-yl)ethanol]	≥ 100	< 10

Structure (SMILES)	IC50 (CDK2/cyclin A2) [nM]	IC50 (CDK4/cyclin D3) [nM]
COCC(C)(C)Nc1nc([C@@H](C)O)cc2cnc(Nc3ccc(CN4CCC(C(C)(C)O)CC4)cn3)nc12 [Compound 196]	≥ 100	< 10
COCC(C)(C)Nc1nc([C@@H](C)O)cc2cnc(Nc3ccc(CN4CCC(C(=O)O)CC4)cn3)nc12 [Compound 197]	≥ 100	10 to 100
COCC(C)(C)Nc1nc([C@@H](C)O)cc2cnc(Nc3ccc(CN4CCOCC4=O)cn3)nc12 [Compound 198]	≥ 100	10 to 100
CO[C@H](C)c1cc2cnc(Nc3ccc(CN4CCOCC4=O)cn3)nc2c(NC(C)C)n1 [Compound 199]	≥ 100	10 to 100
CO[C@H](C)c1cc2cnc(Nc3ccc(CN4CCC(C(C)(C)O)CC4)cn3)nc2c(NC(C)C)n1 [Compound 200]	≥ 100	< 10
CO[C@H](C)c1cc2cnc(Nc3ccc(N4CCC(O)CC4)nn3)nc2c(NC(C)C)n1 [Compound 201]	≥ 100	10 to 100
COCC(C)(C)Nc1nc([C@@H](C)O)cc2cnc(Nc3ccc(N4CCC(O)CC4)nn3)nc12 [Compound 202]	≥ 100	10 to 100
COCC(C)(C)Nc1nc([C@@H](C)O)cc2cnc(Nc3ccc(N4CCOCC4)cn3)nc12 [Compound 204]	≥ 100	< 10
COCC(C)(C)Nc1nc([C@@H](C)O)cc2cnc(Nc3ccc(N4CCNCC4=O)cn3)nc12 [Compound 206]	≥ 100	< 10
CO[C@H](C)c1cc2cnc(Nc3ccc(N4CCNCC4=O)cn3)nc2c(NC(C)C)n1 [Compound 207]	≥ 100	< 10
COCC(C)(C)Nc1nc([C@@H](C)O)cc2cnc(Nc3ccc(OCCN(C)C)cn3)nc12 [Compound 208]	≥ 100	< 10
CC(C)Nc1nc(C(F)F)cc2cnc(Nc3ccc(-c4cn[nH]c4)cn3)nc12 [Compound 209]	≥ 100	10 to 100
CC(C)Nc1nc(C(F)F)cc2cnc(Nc3ccc(-n4cccn4)cn3)nc12 [Compound 210]	≥ 100	10 to 100
COCC(C)(C)Nc1nc([C@@H](C)O)cc2cnc(Nc3ccc(N4CCNCC4)nn3)nc12 [Compound 212]	≥ 100	< 10
CO[C@H](C)c1cc2cnc(Nc3ccc(N4CCOCC4)cn3)nc2c(NC(C)C)n1 [Compound 214]	≥ 100	< 10

Second part, the compound after the results:

IC50 (CDK2/cyclin A2) [nM]	IC50 (CDK4/cyclin D3) [nM]	Structure (SMILES)
≥ 100	< 10	CC(C)Nc1nc(C(F)F)cc2cnc(Nc3ccc(CCC(C)(C)O)cn3)nc12 [Compound 154]
10 to 100	< 10	CC(C)Nc1nc(C(F)F)cc2cnc(Nc3ccc(OCCO)cn3)nc12 [Compound 155]
≥ 100	< 10	CC(C)Nc1nc(C(F)F)cc2cnc(Nc3ccc(OCCCO)cn3)nc12 [Compound 156]
≥ 100	10 to 100	Cc1ccc(Nc2ncc3cc(C(F)F)nc(NC(C)C)c3n2)nc1 [Compound 157]
≥ 100	10 to 100	Cc1nnc(NCc2ccc(Nc3ncc4cc(C(F)F)nc(NC(C)C)c4n3)nc2)[nH]1 [Compound 158]
≥ 100	< 10	CC(C)Nc1nc(C(F)F)cc2cnc(Nc3ccc(C4CCS(=O)(=O)CC4)cn3)nc12 [Compound 159]
10 to 100	< 10	CC(C)Nc1nc(C(F)F)cc2cnc(Nc3ccc(C4CCOCC4=O)cn3)nc12 (stereo not drawn) [Compound 161]
≥ 100	10 to 100	CC(C)Nc1nc(C(F)F)cc2cnc(Nc3ccc(CN(C4CCOC4)S(C)(=O)=O)cn3)nc12 (stereo not drawn) [Compound 162]
10 to 100	< 10	CC(C)Nc1nc(C(F)F)cc2cnc(Nc3ccc(CCCO)cn3)nc12 [Compound 164]
10 to 100	< 10	CC(C)Nc1nc(C(F)F)cc2cnc(Nc3ccc(CN4CCOCC4=O)cn3)nc12 [Compound 166]
10 to 100	< 10	CC(C)Nc1nc(C(F)F)cc2cnc(Nc3ccc(CCCN4CCOCC4=O)cn3)nc12 [Compound 168]
10 to 100	< 10	CC(C)Nc1nc(C(F)F)cc2cnc(Nc3ccc(C(=O)N4CCOCC4)cn3)nc12 [Compound 169]
10 to 100	< 10	CC(C)Nc1nc(C(F)F)cc2cnc(Nc3ccc(N4CCC(O)CC4)nn3)nc12 [Compound 171]
10 to 100	< 10	CC(C)Nc1nc(C(F)F)cc2cnc(Nc3ccc(CN4CCOCCC4=O)cn3)nc12 [Compound 173]
10 to 100	< 10	CC(C)Nc1nc(C(F)F)cc2cnc(Nc3ccc(CN4CCNC(C)(C)C4)cn3)nc12 [Compound 174]
10 to 100	< 10	CC(C)Nc1nc(C(F)F)cc2cnc(Nc3ccc(CN4CCNC5(CC5)C4)cn3)nc12 [Compound 175]
10 to 100	< 10	CC(C)Nc1nc(C(F)F)cc2cnc(Nc3ccc(CN4CCCCC4)cn3)nc12 [Compound 177]
10 to 100	< 10	CC(C)Nc1nc(C(F)F)cc2cnc(Nc3ccc(N4CCNC(C)(C)C4)cn3)nc12 [Compound 181]
10 to 100	< 10	CC(C)Nc1nc(C(F)F)cc2cnc(Nc3ccc(N4C[C@H](O)CC4=O)cn3)nc12 [Compound 183]
10 to 100	< 10	CC(C)Nc1nc(C(F)F)cc2cnc(Nc3ccc(N4C[C@@H](O)CC4=O)cn3)nc12 [Compound 184]
10 to 100	< 10	CC(C)Nc1nc(C(F)F)cc2cnc(Nc3ccc(CN(C)C(N)=O)cn3)nc12 [Compound 185]
10 to 100	< 10	CC(C)Nc1nc(C(F)F)cc2cnc(Nc3ccc(CN4CCCC4C(=O)O)cn3)nc12 (stereo not drawn) [Compound 189]
10 to 100	< 10	CC(C)Nc1nc(C(F)F)cc2cnc(Nc3ccc(CN4CCC(C(=O)O)C4)cn3)nc12 (stereo not drawn) [Compound 190]
10 to 100	< 10	CC(C)Nc1nc(C(F)F)cc2cnc(Nc3ccc(N4CCC(C(C)(C)O)CC4)nn3)nc12 [Compound 191]
10 to 100	< 10	CC(C)Nc1nc(C(F)F)cc2cnc(Nc3ccc(CN4CCCCC4C(=O)O)cn3)nc12 (stereo not drawn) [Compound 194]
10 to 100	< 10	CC(C)Nc1nc(C(F)F)cc2cnc(Nc3ccc(C4=CC(=O)NCC4)cn3)nc12 [Compound 203]
10 to 100	< 10	CC(C)Nc1nc(C(F)F)cc2cnc(Nc3ccc(CN4CCNCC4=O)cn3)nc12 [Compound 205]
10 to 100	10 to 100	CC(C)Nc1nc(C(F)F)cc2cnc(Nc3ccc(-n4cnnn4)cn3)nc12 [Compound 211]
10 to 100	< 10	CC(C)Nc1nc(C(F)F)cc2cnc(Nc3ccc(CN4CCNC4=O)cn3)nc12 [Compound 213]
